Measurements reported in patent US20140357655A1, “SPIROINDOLINE DERIVATIVES AS GONADOTROPIN- RELEASING HORMONE RECEPTOR ANTAGONISTS” (Bayer Intellectual Property GmbH, priority 2012, published 2014).
Like-named read-outs stand apart in the source and are kept apart here. Square brackets hold non-standard residues; d marks the D form. Peptide text beside a SMILES is read from it. dPhe(4-Cl) = N[C@H](Cc1ccc(Cl)cc1)C(=O)O; d2Nal = N[C@H](Cc1ccc2ccccc2c1)C(=O)O; dCit = NC(=O)NCCC[C@@H](N)C(=O)O; d3Pal = N[C@H](Cc1cccnc1)C(=O)O

Assays:
human GnRHR = molecular target: T1, human GnRHR (Homo sapiens, UniProt P30968); test: Tag-Lite receptor binding assay; details: Hek293 cells transiently transfected with human GnRHR; green-labelled GnRHR binding peptide; read-out: Potency in receptor binding assay using TAG-LITE technology, given as IC50
T1 construct: host or cells: HEK293 (transient transfection), purchased as frozen labelled cells
T1 sequence (P30968 1-328): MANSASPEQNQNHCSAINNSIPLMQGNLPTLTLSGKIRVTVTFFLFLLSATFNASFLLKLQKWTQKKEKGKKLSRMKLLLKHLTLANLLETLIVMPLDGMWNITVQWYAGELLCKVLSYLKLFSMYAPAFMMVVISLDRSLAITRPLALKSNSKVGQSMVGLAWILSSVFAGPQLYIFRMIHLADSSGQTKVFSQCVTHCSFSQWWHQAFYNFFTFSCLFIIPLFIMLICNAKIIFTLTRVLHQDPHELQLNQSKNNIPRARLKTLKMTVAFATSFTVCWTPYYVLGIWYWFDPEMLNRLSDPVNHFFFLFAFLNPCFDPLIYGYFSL
From the text: This binding assay is based on the fluorescence resonance energy transfer between fluorescence donor labelled human GnRHR and a green-labelled GnRHR binding peptide. Compounds interfering with the ligand binding side of the human GnRHR will replace the labelled peptide resulting in a signal decrease. The assay principle was established by Cisbio Bioassays (Bagnols-sur-Cèze Cedex, France) and further details are available on their homepage.
The assay procedure was further optimized for use in-house with reduced assay volumes. Frozen Hek293 cells, transiently transfected with human GnRHR and Terbium-labelling of the receptor, were supplied by Cisbio Bioassays as well as Tag-Lite buffer and green-labelled GnRHR binding peptide. Cells were thawed and transferred to cold Tag-Lite buffer. A volume of 8 μl of this cell suspension were added to 100 nl of a 160-fold concentrated solution of the test compound in DMSO pre-dispensed in a well of a white low-volume 384-well microtiter plate (Greiner Bio-One, Frickenhausen, Germany). The mixture was incubated for 5 min at room temperature. In the next step either 4 μl Tag-Lite buffer or as control 4 μl of an exceeding amount unlabelled binding peptide in Tag-Lite buffer were transferred to the mixture. The green-labelled GnRHR binding peptide was added in a final step at EC50 in a volume of 4 μl Tag-Lite buffer. After an incubation of 1 h at room temperature plates were measured in a microplate reader, e.g. a PHERAstar (BMG Labtechnologies, Offenburg, Germany) by using a specific optic module.
A ratio from the fluorescence emissions at 520 nm (green fluorescence) and at 490 nm (background signal of Terbium-labelled GnRHR) was calculated and the data were normalized (reaction without test compound=0% inhibition of binding of green-labelled peptide; reaction without test compound with exceeding amount unlabelled binding peptide=100% inhibition of binding of green-labelled peptide). On the same microtiter plate, compounds were tested at 10 different concentrations in the range of 12.5 μM to 0.64 nM (12.5 μM, 4.2 μM, 1.4 μM, 0.46 μM, 0.15 μM, 51 nM, 17 nM, 5.7 nM, 1.9 nM and 0.64 nM; dilution series prepared before the assay at the level of the 160-fold conc. stock solutions by serial 1:3 dilutions in 100% DMSO) in duplicate values for each concentration. By using an in-house software, the IC50 values were calculated by a 4 parameter fit.

human GnRH receptor = molecular target: T2, human GnRH receptor (Homo sapiens, UniProt P30968); test: IP-One HTRF assay with buserelin (at EC80) stimulation; format: cell-based; details: CHO cells stably expressing human GnRH receptor, read-out: Potency in IP-One HTRF assay, given as IC50
T2 sequence (P30968 1-328): T1 sequence (P30968 1-328)
How it was run: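 CHO cells stably expressing human GnRH receptor, preincubated 1 h at 37° C with IP1-d2, were exposed to compound and buserelin at EC80 for 1 h at 37° C. After lysis with Tb-anti-IP1 antibody (1 h, 22° C), 665/620 nm HTRF ratio read; 10 concentrations, 20 μM–1 nM, duplicates, 4-parameter IC50.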

[1] = Serum compound levels in ovariectomized rats; format: in vivo; details: female, rat, read-out: serum compound level
Method: (§1) Female adult rats were ovariectomized surgically and they were allowed to recover for at least one week. The animals received 1 mg/kg, 10 mg/kg or 30 mg/kg of Example 14.1 by single per oral administration. For comparison reasons a vehicle control and a positive control, 0.1 mg/kg cetrorelix i.p., were given once. At 0 min, 15 min, 30 min, 1 hour, 2 hours, 6 hours and 24 hours after compound administration blood was taken from the retro orbital plexus (n=6 per blood withdrawal) for the measurement of serum LH and serum compound levels.

serum LH = test: LH suppression in the ovariectomized rat; format: in vivo; details: ovariectomized rats; for LH suppression: at 6 hours
From the text: The in vivo potency of GnRH antagonists can be quantified by a LH suppression test in ovariectomized rats. GnRH triggers the LH release from the pituitary mediated by GnRH receptors. Ovarectomy of adult female rats results in elevated levels of circulating LH due to a lack of negative feedback by gonadal steroids. GnRH antagonists suppress the release of LH and accordingly suppression of LH levels can be used to quantify the in vivo potency of GnRH antagonists.
as §1

Structure (SMILES)	IC50 (human GnRHR) [nM]	IC50 (human GnRH receptor) [nM]	also measured
O=C(NCc1ncccc1Cl)c1ccc2c(c1)C1(CCS(=O)(=O)CC1)C(C1CC1)N2S(=O)(=O)c1ccc(F)cc1 (single isomer, unassigned) [Example 14.1, N-[(3-Chloropyridin-2-yl)methyl]-2-cyclopropyl-1-[(4-fluorophenyl)sulfonyl]-1,2,2′,3′,5′,6′-hexahydrospiro[indole-3,4′-thiopyran]-5-carboxamide 1′,1′-dioxide]	20	104	concentration at 6 h ([1]; 1 mg/kg per oral): 40 nM; concentration at 6 h ([1]; 10 mg/kg per oral): 770 ± 200 nM; concentration at 6 h ([1]; 30 mg/kg per oral): 1840 ± 530 nM; LH suppression (serum LH; 1 mg/kg single per oral): 11%; LH suppression (serum LH; 10 mg/kg single per oral): 89%; LH suppression (serum LH; 30 mg/kg single per oral): 88%; in vivo activity (conclusion in words) (serum LH; per oral): orally active GnRH antagonist in vivo
O=C(NCc1ccccc1Cl)c1ccc2c(c1)C1(CC[S+]([O-])CC1)C(C1CC1)N2S(=O)(=O)c1ccc(F)cc1 (single isomer, unassigned) [Example 13.1, N-(2-Chlorobenzyl)-2-cyclopropyl-1-[(4-fluorophenyl)sulfonyl]-1,2,2′,3′,5′,6′-hexahydrospiro[indole-3,4′-thiopyran]-5-carboxamide 1′-oxide]	8.5	12	–
O=C(Nc1cccc(Cl)c1)c1ccc2c(c1)C1(CCS(=O)(=O)CC1)C(C1CC1)N2S(=O)(=O)c1ccc(F)cc1 (stereo not drawn) [Example 24, N-(3-chlorophenyl)-2-cyclopropyl-1-[(4-fluorophenyl)sulfonyl]-1,2,2′,3′,5′,6′-hexahydrospiro[indole-3,4′-thiopyran]-5-carboxamide 1′,1′-dioxide]	187	264	–
CC(=O)N[C@H](Cc1ccc2ccccc2c1)C(=O)N[C@H](Cc1ccc(Cl)cc1)C(=O)N[C@H](Cc1cccnc1)C(=O)N[C@@H](CO)C(=O)N[C@@H](Cc1ccc(O)cc1)C(=O)N[C@H](CCCNC(N)=O)C(=O)N[C@@H](CC(C)C)C(=O)N[C@@H](CCCNC(=N)N)C(=O)N1CCC[C@H]1C(=O)N[C@H](C)C(N)=O [cetrorelix, reference compound] (Ac-[d2Nal][dPhe(4-Cl)][d3Pal]SY[dCit]LRP[dA]-NH2)	–	–	LH suppression (serum LH; 0.1 mg/kg i.p.): 91%
N#Cc1ccc(S(=O)(=O)N2c3ccc(C(=O)Nc4ccccc4F)cc3C3(CCS(=O)(=O)CC3)C2C2CC2)cc1 (stereo not drawn) [Example 75, 1-[(4-cyanophenyl)sulfonyl]-2-cyclopropyl-N-(2-fluorophenyl)-1,2,2′,3′,5′,6′-hexahydrospiro[indole-3,4′-thiopyran]-5-carboxamide 1′,1′-dioxide]	30	53	–
O=C(NCc1ccccc1C(F)F)c1ccc2c(c1)C1(CCS(=O)(=O)CC1)C(C1CC1)N2S(=O)(=O)c1ccc(F)cc1 (single isomer, unassigned) [Example 68.1, 2-cyclopropyl-N-[2-(difluoromethyl)benzyl]-1-[(4-fluorophenyl)sulfonyl]-1,2,2′,3′,5′,6′-hexahydrospiro[indole-3,4′-thiopyran]-5-carboxamide 1′,1′-dioxide]	9.5	4.2	–
